According to article PMC8249783, “A novel multikinase inhibitor SKLB‐YTH‐60 ameliorates inflammation and fibrosis in bleomycin‐induced lung fibrosis mouse models” (Cell Proliferation, 2021):

Key:
[1] = target: Abl (h) (Homo sapiens, UniProt P00519); test: Kinase profile assay and IC50 test (Eurofins); type: biochemical; conditions: double testing
Method: (§1) The in vitro kinase enzymatic inhibition assays were carried out by the Kinase Profiling Services provided by Eurofins (UK). The detailed protocol descriptions can be provided by the website (https://www.eurofinsdiscoveryservices.com).

[2] = target: FGFR1 (h) (Homo sapiens, UniProt P11362); test: Kinase profile assay and IC50 test (Eurofins); type: biochemical; conditions: double testing
Method: as §1

[3] = target: FGFR2 (h) (Homo sapiens, UniProt P21802); test: Kinase profile assay and IC50 test (Eurofins); type: biochemical; conditions: double testing
Method: as §1

[4] = target: FGFR3 (h) (Homo sapiens, UniProt P22607); test: Kinase profile assay and IC50 test (Eurofins); type: biochemical; conditions: double testing
Method: as §1

[5] = target: FGFR4 (h) (Homo sapiens, UniProt P22455); test: Kinase profile assay and IC50 test (Eurofins); type: biochemical; conditions: double testing
Method: as §1

[6] = target: Flt1 (h)/VEGFR1 (Homo sapiens, UniProt P17948); test: Kinase profile assay and IC50 test (Eurofins); type: biochemical; conditions: double testing
Method: as §1

[7] = target: Flt3 (h) (Homo sapiens, UniProt P36888); test: Kinase profile assay and IC50 test (Eurofins); type: biochemical; conditions: double testing
Method: as §1

[8] = target: Flt4 (h)/VEGFR3 (Homo sapiens, UniProt P35916); test: Kinase profile assay and IC50 test (Eurofins); type: biochemical; conditions: double testing
Method: as §1

[9] = target: KDR (h)/VEGFR2 (Homo sapiens, UniProt P35968); test: Kinase profile assay and IC50 test (Eurofins); type: biochemical; conditions: double testing
Method: as §1

[10] = target: PDGFRα (h) (Homo sapiens, UniProt P16234); test: Kinase profile assay and IC50 test (Eurofins); type: biochemical
Method: as §1

[11] = target: PDGFRβ (h) (Homo sapiens, UniProt P09619); test: Kinase profile assay and IC50 test (Eurofins); type: biochemical
Method: as §1

[12] = target: T1, Src (1‐530) (h) (Homo sapiens, UniProt P12931); test: Kinase profile assay and IC50 test (Eurofins); type: biochemical; conditions: double testing
T1 construct: Src (1‐530) (h)
Method: as §1

[13] = system: Human pulmonary fibroblasts (HPF); test: Cell viability assay (CCK8); type: cell-based; conditions: 24‐72 hours
Method: (§2) The cell viability of YTH‐60 and Nintedanib treatment was performed by MTT and CCK8 assay. Briefly, the exponentially growing cells were seeded in 96‐well (2‐5 × 10^3 cells·well^−1) and cultured for 24 hours. The cells were treated with different concentrations of YTH‐60 (0, 0.625, 1.25, 2.5, 5, 10 µmol·L^−1), after treatment for 24, 48 and 72 hours, respectively, a volume of 20 μL of 5 mg·mL^−1 MTT solution or 10 μL CCK‐8 solution was added to each well and incubation for 2‐4 hours at 37°C. Finally, the 96‐well plates were read on Multiskan FC microplate spectrophotometer at 570 or 450 nm wavelength.

[14] = system: MRC‐5 human embryo lung fibroblast; test: Cell viability assay (CCK8); type: cell-based; conditions: MRC‐5, 24‐72 hours
Method: as §2

[15] = system: NIH‐3T3 (mouse embryonic fibroblast); test: Cell viability assay (CCK8); type: cell-based; conditions: NIH‐3T3, 24‐72 hours
Method: as §2

[16] = system: α‐SMA, collagen I and TGF‐β1 mRNA in NIH‐3T3 cells; test: Real‐time qPCR of fibrosis markers in TGF‐β1‐treated fibroblasts; type: cell-based, mouse; conditions: NIH‐3T3, TGF‐β1 and 2.5 μmol·L^−1 for 24 hours
Method: Total RNA of lung tissues or cells was extracted by using AxyPrep Multisource Total RNA Miniprep Kit (Axygen). Reverse transcription was carried out with Evo M‐MLV RT Kit with gDNA Clean (Accurate, AG11711). qRTPCR was conducted using SYBR Green Pro Taq HS (Accurate, AG11701).

[17] = system: BLM‐induced pulmonary fibrosis; test: BLM‐induced pulmonary fibrosis mouse model, preventive treatment; type: in vivo, C57BL/6 mice; conditions: mice, day 14
Method: (§3) Male C57BL/6 mice (8‐10 weeks old) were purchased from HFK Bioscience Co. Ltd. All animal experiments were permitted by the Institutional Animal Care and Treatment Committee of Sichuan University in China (New Permit Number: 20190524003). Lung fibrosis was induced using BLM treatment (2 mg·kg^−1). All C57BL/6 mice were divided into five groups (n = 10): a BLM + Nintedanib group (Nintedanib, 30 mg·kg^−1), a BLM + YTH‐60 group (YTH‐60, 15 mg·kg^−1 and 30 mg·kg^−1), a control group (Sham), and a bleomycin group (Vehicle). At the beginning, the mice were anaesthetized using 10% chloral hydrate, dissolved BLM with saline and administered intratracheally. To evaluate the preventive effect, the next day after BLM challenge, YTH‐60 and Nintedanib were administered intraperitoneally daily for 13 days (fibroproliferation) to the mice. All mice were sacrificed 24 hours after the last drug injection, the lungs and other organs were taken for the subsequent analysis. […]
The left lung was detached and immediately fixed in 4% paraformaldehyde for 72 hours and then embed with paraffin wax. […] Ashcroft scoring was used to examine the severity of pulmonary fibrosis. ^20 The image analysis‐based system to quantify collagen deposition was described previously. ^21 […]

[18] = system: BLM‐induced pulmonary fibrosis; test: BLM‐induced pulmonary fibrosis mouse model, therapeutic treatment (day 7 to 14); type: in vivo, C57BL/6 mice; conditions: mice, 30 mg·kg^−1 i.p. from day 7 to 14
Method: as §3
The left lung was detached and immediately fixed in 4% paraformaldehyde for 72 hours and then embed with paraffin wax. […] Ashcroft scoring was used to examine the severity of pulmonary fibrosis. ^20 The image analysis‐based system to quantify collagen deposition was described previously. ^21

PDGFRα (h), sequence (P16234 24-1089): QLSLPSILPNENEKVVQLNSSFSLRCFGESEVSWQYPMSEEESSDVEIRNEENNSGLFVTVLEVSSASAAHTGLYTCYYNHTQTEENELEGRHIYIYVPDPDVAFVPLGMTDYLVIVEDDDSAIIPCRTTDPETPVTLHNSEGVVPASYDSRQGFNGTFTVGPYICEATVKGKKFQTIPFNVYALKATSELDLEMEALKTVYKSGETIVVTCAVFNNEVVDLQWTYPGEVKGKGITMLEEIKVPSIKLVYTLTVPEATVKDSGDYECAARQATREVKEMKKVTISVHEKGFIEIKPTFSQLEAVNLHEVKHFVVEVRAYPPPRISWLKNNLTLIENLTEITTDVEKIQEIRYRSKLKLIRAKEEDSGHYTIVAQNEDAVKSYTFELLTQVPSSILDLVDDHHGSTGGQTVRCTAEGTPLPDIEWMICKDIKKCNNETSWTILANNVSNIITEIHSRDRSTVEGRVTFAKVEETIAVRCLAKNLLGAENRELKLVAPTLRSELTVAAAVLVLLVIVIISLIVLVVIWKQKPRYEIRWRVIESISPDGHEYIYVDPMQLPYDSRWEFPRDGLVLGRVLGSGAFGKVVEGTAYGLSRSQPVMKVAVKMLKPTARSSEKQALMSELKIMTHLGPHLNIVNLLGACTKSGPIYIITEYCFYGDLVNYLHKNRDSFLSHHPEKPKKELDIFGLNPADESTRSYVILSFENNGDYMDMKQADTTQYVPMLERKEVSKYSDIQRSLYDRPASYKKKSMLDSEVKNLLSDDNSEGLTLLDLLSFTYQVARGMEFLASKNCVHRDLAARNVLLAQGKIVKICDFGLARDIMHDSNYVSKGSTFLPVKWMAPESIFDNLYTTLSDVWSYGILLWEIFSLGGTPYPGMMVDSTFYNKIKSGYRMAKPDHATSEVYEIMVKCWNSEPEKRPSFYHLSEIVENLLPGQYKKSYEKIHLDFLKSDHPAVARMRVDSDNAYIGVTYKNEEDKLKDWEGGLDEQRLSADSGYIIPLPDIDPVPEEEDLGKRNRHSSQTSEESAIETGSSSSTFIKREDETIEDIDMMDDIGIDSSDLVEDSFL
PDGFRβ (h), sequence (P09619 33-1106): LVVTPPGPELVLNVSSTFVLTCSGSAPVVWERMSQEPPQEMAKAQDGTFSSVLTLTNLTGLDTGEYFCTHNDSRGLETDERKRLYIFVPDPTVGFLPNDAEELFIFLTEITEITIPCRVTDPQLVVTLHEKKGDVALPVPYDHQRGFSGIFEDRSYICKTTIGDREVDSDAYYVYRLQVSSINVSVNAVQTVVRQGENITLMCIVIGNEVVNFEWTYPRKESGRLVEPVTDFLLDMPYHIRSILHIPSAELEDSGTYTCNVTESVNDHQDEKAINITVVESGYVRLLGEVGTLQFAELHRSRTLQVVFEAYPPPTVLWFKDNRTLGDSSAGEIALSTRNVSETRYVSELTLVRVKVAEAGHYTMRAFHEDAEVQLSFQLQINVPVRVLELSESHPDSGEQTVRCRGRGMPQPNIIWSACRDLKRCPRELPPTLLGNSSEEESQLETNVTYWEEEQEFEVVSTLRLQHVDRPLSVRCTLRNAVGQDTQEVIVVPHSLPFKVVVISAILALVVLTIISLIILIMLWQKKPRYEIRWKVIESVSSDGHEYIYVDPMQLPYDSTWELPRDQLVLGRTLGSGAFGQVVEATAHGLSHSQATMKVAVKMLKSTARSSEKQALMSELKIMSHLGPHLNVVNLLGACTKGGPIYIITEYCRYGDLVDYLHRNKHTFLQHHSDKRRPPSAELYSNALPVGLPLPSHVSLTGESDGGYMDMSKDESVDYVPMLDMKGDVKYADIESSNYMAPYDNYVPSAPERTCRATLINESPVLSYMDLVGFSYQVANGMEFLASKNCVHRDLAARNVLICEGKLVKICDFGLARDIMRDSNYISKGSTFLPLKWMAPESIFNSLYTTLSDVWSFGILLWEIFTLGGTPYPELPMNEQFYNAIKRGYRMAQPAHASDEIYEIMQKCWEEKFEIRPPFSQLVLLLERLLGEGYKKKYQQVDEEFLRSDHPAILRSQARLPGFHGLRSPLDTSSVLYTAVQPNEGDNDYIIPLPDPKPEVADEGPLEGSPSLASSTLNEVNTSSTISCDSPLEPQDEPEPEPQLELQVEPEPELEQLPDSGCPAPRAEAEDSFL
T1 sequence (P12931 1-530): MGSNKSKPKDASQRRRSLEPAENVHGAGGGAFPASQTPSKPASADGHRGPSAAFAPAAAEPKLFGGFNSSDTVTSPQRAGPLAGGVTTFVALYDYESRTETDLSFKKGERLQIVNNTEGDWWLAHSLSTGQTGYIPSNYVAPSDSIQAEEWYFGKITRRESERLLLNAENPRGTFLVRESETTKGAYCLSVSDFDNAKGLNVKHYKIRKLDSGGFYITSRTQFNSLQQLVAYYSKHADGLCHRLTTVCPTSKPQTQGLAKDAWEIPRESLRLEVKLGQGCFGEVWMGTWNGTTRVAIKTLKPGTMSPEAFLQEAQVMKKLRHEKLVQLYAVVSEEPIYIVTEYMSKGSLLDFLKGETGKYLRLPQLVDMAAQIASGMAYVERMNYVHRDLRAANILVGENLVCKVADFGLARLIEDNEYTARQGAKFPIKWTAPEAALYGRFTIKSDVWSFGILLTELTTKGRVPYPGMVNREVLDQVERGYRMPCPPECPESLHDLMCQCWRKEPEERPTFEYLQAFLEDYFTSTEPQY
FGFR1 (h), sequence (P11362 22-822): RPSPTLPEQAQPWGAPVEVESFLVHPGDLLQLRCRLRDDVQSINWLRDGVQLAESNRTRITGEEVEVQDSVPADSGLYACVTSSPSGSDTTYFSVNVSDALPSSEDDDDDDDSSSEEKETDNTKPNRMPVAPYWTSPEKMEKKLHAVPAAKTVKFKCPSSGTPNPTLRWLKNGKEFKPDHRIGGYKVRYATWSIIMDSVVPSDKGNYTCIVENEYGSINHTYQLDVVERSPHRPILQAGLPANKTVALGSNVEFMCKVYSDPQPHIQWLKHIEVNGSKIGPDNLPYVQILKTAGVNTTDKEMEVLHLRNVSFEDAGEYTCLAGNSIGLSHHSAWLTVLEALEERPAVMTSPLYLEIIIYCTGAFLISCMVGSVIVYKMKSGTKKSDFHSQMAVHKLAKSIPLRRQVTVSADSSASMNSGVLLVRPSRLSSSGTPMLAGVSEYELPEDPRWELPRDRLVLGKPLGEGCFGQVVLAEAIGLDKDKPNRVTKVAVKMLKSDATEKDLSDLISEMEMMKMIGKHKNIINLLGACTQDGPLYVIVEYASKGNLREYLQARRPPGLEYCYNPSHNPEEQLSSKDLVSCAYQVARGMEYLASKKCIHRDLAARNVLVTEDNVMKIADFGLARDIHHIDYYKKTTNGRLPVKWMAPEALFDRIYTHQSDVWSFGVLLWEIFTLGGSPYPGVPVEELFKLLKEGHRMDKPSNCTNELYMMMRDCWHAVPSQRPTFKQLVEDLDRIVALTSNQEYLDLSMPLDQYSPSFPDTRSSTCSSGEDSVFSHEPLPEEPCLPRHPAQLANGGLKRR
FGFR4 (h), sequence (P22455 22-802): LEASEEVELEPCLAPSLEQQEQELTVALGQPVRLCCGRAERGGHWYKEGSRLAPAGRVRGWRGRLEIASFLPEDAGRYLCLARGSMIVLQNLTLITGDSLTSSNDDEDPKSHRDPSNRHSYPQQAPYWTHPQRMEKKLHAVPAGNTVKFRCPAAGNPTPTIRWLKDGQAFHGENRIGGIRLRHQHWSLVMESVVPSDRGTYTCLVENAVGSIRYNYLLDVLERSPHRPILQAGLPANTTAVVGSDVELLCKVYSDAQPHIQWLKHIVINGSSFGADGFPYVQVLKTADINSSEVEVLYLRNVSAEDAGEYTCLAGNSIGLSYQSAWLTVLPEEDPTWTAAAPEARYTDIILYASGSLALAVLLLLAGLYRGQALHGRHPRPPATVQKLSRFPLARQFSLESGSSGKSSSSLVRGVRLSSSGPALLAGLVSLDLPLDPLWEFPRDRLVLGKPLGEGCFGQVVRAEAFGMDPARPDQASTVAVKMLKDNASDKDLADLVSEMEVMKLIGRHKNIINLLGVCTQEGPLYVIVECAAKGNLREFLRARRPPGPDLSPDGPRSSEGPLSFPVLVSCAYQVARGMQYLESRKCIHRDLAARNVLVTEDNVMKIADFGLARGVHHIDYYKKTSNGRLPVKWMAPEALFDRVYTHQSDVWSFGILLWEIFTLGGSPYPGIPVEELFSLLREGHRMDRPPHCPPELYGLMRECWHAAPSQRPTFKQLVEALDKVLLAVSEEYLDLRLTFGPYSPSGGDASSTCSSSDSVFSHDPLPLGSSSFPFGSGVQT
FGFR2 (h), sequence (P21802 22-821): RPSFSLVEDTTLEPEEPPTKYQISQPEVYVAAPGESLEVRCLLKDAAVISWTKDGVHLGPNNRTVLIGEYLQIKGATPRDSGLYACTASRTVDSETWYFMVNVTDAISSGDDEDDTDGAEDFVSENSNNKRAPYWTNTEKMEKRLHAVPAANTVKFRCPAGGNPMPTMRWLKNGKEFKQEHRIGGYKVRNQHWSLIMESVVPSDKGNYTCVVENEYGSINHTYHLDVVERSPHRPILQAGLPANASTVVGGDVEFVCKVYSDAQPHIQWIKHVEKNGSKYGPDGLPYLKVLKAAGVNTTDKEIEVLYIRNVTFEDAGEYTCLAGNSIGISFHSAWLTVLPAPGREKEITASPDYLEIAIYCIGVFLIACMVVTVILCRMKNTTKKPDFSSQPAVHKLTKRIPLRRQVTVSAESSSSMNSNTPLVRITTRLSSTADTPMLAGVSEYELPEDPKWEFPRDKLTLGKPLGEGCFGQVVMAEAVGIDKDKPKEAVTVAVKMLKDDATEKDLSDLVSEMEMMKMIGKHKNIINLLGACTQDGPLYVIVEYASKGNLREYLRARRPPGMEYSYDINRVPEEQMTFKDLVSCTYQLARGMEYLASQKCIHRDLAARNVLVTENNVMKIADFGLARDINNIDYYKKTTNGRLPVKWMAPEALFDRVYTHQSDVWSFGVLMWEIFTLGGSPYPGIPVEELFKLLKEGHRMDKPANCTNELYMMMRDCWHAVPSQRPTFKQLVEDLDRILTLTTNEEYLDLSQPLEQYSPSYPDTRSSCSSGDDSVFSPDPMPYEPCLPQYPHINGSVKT

IC50 [1]: 27 nM
IC50 [2]: 4 nM
IC50 [3]: 7 nM
IC50 [4]: 9 nM
IC50 [5]: 424 nM
IC50 [6]: 123 nM
IC50 [7]: 297 nM
IC50 [8]: 64 nM
IC50 [9]: 61 nM
kinase inhibition (in words) [10]: relatively weak kinase inhibition
IC50 ([10]; double testing): 921 nM
kinase inhibition (in words) [11]: relatively weak kinase inhibition
IC50 ([11]; double testing): > 3000 nM
IC50 [12]: 633 nM
SMILES: COc1cc(OC)c(Cl)c(-c2ccc3c(/C=C/c4ccc(N(C)C(=O)CN5CCN(C)CC5)cc4)n[nH]c3c2)c1Cl [YTH‐60, (E)‐N‐(4‐(2‐(6‐(2,6‐dichloro‐3,5‐dimethoxyphenyl)‐1H‐indazol‐3‐yl)vinyl)phenyl)‐N‐methyl‐2‐(4‐methylpiperazin‐1‐yl)acetamide]
cell proliferation / viability (in words) [13]: inhibits cell proliferation in a time‐ and concentration‐dependent manner
cell proliferation / viability (in words) [14]: inhibits cell proliferation in a time‐ and concentration‐dependent manner
cell proliferation / viability (in words) [15]: inhibits cell proliferation in a time‐ and concentration‐dependent manner
mRNA levels of α‐SMA, collagen I and TGF‐β1 (in words) [16]: reduced this effect
preventive effect on BLM‐induced pulmonary fibrosis (in words) ([17]; 15 mg·kg^−1 i.p.): less effective
preventive effect on BLM‐induced pulmonary fibrosis (in words) ([17]; 30 mg·kg^−1 i.p.): good preventive effect
therapeutic effect on BLM‐induced lung fibrosis (in words) [18]: good therapeutic effect
